Literature values as cited in article PMC5555364 (ACS chemical neuroscience, 2016).

How the values were obtained:
[1] = system: NaV; settings: hyperpolarizing
[2] = system: single-point mutants of rNaV1.4; settings: all amino acid mutations of Figure 5 except tyrosine 1586

Batrachotoxin [BTX]
shift of voltage-dependence of channel activation [1]: −45 mV | effect of mutations on BTX action on channel function [2]: abrogate the effect of BTX
